According to US10988456B2, “O-aminoheteroaryl alkynyl-containing compound, preparation method therefor, and use thereof” (SHANGHAI INSTITUTE OF MATERIA MEDICA, CHINESE ACADEMY OF …, priority 2017, dated 2021):

Experiments:
Assay in all cases: Inhibition of receptor tyrosine kinase activity at molecular level (ELISA, Poly(Glu,Tyr)4:1 substrate phosphorylation)
Assay type in all cases: biochemical
RET = RET (Homo sapiens, UniProt P07949); conditions: for 10 nM inhibition ratio RET: 10 nM compound, average of two independent experiments
RET, sequence (P07949 29-1114): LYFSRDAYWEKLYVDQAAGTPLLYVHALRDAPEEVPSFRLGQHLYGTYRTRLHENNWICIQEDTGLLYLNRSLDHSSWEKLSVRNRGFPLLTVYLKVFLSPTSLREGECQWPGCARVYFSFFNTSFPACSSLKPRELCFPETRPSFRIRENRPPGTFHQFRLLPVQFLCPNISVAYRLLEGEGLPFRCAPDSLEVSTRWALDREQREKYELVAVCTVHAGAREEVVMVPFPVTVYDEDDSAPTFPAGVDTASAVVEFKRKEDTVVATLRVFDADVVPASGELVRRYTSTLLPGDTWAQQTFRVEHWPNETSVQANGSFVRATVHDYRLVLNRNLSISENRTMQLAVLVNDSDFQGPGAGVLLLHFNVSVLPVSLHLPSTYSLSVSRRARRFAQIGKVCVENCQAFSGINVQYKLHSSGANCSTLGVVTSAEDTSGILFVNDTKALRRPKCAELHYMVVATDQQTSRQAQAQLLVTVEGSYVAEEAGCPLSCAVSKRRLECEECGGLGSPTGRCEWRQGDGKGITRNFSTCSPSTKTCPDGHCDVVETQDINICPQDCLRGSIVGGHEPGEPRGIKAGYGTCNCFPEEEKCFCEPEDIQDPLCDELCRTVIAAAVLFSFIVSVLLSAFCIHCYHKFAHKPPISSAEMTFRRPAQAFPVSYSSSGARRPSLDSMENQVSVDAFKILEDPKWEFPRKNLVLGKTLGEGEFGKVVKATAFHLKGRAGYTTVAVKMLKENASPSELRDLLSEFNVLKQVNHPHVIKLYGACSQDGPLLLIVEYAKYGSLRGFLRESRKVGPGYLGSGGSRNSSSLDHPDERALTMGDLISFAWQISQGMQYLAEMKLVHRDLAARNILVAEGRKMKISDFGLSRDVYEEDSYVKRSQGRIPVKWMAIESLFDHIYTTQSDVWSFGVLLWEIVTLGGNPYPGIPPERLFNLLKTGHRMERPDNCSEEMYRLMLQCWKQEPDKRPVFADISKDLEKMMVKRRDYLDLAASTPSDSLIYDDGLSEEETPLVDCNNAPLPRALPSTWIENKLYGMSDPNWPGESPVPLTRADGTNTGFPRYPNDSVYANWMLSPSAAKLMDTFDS
Description: (§1) Enzyme reaction substrate Poly(Glu, Tyr)4:1 was diluted with potassium-free PBS (10 mM sodium phosphate buffer, 150 mM NaCl, pH 7.2-7.4) to 20 μg/mL. […] The reaction was conducted under 37° C. for 12-16 hours. After the liquid was removed from the wells, the plate was washed three times with 200 μL/well of T-PBS (PBS containing 0.1% Tween-20), each for 5 minutes. The enzyme plate was dried in 37° C. dryer for 1-2 hours.
(§2) 50 μL ATP solution diluted with buffer (50 mM HEPES pH 7.4, 50 mM MgCl2, 0.5 mM MnCl2, 0.2 mM Na3VO4, 1 mM DTT) to a final concentration of 5 μM was added into each well. The compound was diluted with DMSO to a suitable concentration (1 μL/well) or the well contained the corresponding concentration of DMSO (negative control well) Then various kinase recombinant proteins diluted with 49 μL of reaction buffer was added to initiate the reaction. Each experiment required duplicate enzyme-free control well. The reaction was carried out for 1 hour on a 37° C. Shaker (100 rpm). The plate was washed three times with T-PBS. A dilution of the primary antibody PY99 was added (100 μL/well), and the reaction was conducted in a shaker at 37° C. for 0.5 hr. The plate was washed three times with T-PBS. A dilution of the horseradish peroxidase-labeled goat anti-mouse IgG secondary antibody was added (100 μL/well), and the reaction was conducted in a shaker at 37° C. for 0.5 hour. Plate was washed with T-PBS for three times. 2 mg/mL OPD coloration solution (diluted with 0.1 M citric acid-sodium citrate buffer containing 0.03% H2O2 (pH=5.4)) was added (100 μL/well), reacted for 1-10 minutes at 25° C. in dark. The reaction was quenched with 2M H2SO4 (50 μL/well), and read at 490 nm using a tunable microplate reader SPECTRA MAX 190.
(§3) The inhibition ratio of the sample was determined by the following formula: […]
(§4) The IC50 values were obtained via four-parameter regression analysis using the software supplied with the microplate reader.

KDR = KDR (Homo sapiens, UniProt P35968); conditions: for 10 nM inhibition ratio KDR: 10 nM compound, average of two independent experiments
KDR, sequence (P35968 20-1356): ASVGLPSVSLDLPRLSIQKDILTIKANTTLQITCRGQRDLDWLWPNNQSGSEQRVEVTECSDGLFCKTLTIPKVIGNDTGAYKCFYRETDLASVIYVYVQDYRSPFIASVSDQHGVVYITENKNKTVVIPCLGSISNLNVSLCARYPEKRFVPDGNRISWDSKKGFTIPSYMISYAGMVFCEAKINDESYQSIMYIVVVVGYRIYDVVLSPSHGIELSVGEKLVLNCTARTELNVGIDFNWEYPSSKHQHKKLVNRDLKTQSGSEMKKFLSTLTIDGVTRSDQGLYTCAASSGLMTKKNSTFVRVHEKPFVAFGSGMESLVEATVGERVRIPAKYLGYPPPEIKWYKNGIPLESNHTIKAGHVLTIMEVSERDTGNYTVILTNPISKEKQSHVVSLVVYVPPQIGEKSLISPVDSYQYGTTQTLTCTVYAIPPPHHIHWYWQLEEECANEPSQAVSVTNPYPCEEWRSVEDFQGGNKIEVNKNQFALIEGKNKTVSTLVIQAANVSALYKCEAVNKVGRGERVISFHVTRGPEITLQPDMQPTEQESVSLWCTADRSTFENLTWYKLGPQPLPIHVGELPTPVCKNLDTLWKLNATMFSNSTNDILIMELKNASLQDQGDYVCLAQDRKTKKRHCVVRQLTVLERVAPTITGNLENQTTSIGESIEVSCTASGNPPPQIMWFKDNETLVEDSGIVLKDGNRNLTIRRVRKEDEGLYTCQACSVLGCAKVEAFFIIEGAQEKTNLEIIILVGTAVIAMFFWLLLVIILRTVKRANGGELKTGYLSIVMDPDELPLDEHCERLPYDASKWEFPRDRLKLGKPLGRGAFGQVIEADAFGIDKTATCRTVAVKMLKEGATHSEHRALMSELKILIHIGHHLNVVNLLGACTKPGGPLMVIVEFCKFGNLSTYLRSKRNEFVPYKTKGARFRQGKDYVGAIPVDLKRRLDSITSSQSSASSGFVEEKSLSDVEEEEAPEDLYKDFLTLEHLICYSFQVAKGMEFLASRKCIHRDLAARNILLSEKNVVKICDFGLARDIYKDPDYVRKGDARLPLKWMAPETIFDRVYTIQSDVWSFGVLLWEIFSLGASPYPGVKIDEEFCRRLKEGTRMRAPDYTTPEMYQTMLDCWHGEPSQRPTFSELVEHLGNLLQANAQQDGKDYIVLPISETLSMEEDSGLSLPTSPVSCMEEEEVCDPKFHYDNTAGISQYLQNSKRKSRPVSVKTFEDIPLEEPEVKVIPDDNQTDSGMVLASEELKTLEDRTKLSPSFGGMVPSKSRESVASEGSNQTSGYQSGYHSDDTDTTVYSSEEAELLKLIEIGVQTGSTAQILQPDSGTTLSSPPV
Description: as §1, §2, §3, §4

FGFR1 = FGFR1 (Homo sapiens, UniProt P11362); conditions: for 10 nM inhibition ratio FGFR1: 10 nM compound, average of two independent experiments; for inhibition ratio FGFR1 (100 nM): 100 nM compound
FGFR1, sequence (P11362 22-822): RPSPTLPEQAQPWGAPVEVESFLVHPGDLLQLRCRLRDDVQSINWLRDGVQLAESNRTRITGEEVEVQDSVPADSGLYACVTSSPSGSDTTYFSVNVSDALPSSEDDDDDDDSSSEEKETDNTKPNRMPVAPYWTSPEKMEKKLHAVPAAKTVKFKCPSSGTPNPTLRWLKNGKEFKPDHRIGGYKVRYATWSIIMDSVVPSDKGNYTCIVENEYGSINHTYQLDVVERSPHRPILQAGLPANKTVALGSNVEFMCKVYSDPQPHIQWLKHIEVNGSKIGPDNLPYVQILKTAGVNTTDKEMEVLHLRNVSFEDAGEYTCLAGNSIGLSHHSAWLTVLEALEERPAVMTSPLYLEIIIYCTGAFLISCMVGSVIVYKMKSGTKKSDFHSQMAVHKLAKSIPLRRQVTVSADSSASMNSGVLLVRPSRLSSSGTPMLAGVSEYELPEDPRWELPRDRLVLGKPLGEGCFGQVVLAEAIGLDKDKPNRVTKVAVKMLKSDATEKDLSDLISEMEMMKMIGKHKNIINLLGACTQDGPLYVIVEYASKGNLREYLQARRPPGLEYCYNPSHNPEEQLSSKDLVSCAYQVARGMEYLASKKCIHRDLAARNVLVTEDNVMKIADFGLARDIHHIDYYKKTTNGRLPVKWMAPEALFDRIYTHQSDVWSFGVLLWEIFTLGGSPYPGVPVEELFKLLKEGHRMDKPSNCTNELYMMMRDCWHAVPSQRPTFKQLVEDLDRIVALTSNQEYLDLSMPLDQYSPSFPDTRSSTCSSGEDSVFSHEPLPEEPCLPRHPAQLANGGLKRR
Description: as §1, §2, §3, §4

Row | 10 nM inhibition ratio RET (RET) | 10 nM inhibition ratio KDR (KDR) | 10 nM inhibition ratio FGFR1 (FGFR1) | inhibition ratio RET (100 nM) (RET; 100 nM compound) | inhibition ratio KDR (100 nM) (KDR; 100 nM compound) | inhibition ratio FGFR1 (100 nM) (FGFR1) | Compound
1 | 55.1 | 27.8 | 56.3 |  |  |  | CC(C)(C)OC(=O)N1CCN(Cc2ccc(NC(=O)c3ccc(Cl)c(C#Cc4cccnc4N)c3)cc2C(F)(F)F)CC1 [Example 50]
2 | 77.3 | 36.6 | 58.2 |  |  |  | CN(C)CC=CC(=O)Nc1cnc(N)c(C#Cc2cc(C(=O)Nc3ccc(CN4CCN(C)CC4)c(C(F)(F)F)c3)ccc2Cl)c1 [Example 40]
3 | 83.4 | 28.9 | 60.7 |  |  |  | CN1CCN(Cc2ccc(NC(=O)c3cc(Cl)cc(C#Cc4cccnc4N)c3)cc2C(F)(F)F)CC1 [Example 9]
4 | 60.0 | 33.1 | 74.1 |  |  |  | CN1CCN(Cc2ccc(NC(=O)c3ccc(Cl)c(C#Cc4cc(OC(F)(F)F)cnc4N)c3)cc2C(F)(F)F)CC1 [Example 23]
5 | 58.1 | 32.0 | 44.3 |  |  |  | CN1CCN(Cc2ccc(NC(=O)c3ccc(Cl)c(C#Cc4cc(C#N)cnc4N)c3)cc2C(F)(F)F)CC1 [Example 21]
6 | 53.4 | 30.4 | 46.0 |  |  |  | CN1CCN(Cc2ccc(NC(=O)c3cc(C#Cc4cccnc4N)ccc3F)cc2C(F)(F)F)CC1 [Example 8]
7 | 65.3 | 44.1 | 51.8 |  |  |  | CN1CCN(Cc2ccc(NC(=O)c3cccc(C#Cc4cc(NC(=O)C5CC5)cnc4N)c3)cc2C(F)(F)F)CC1 [Example 38]
8 | 57.6 | 20.3 | 46.1 |  |  |  | Cc1ccc(C#Cc2cccnc2N)cc1C(=O)Nc1ccc(CN2CCN(C)CC2)c(C(F)(F)F)c1 [Example 14]
9 | 66.1 | 23.5 | 64.1 |  |  |  | CN1CCN(Cc2ccc(NC(=O)c3ccc(Cl)c(C#Cc4cc(OC5CC5)cnc4N)c3)cc2C(F)(F)F)CC1 [Example 24]
10 | 69.5 | 34.1 | 78.2 |  |  |  | COCCOc1cnc(N)c(C#Cc2cc(C(=O)Nc3ccc(CN4CCN(C)CC4)c(C(F)(F)F)c3)ccc2Cl)c1 [Example 27]
11 | 79.3 | 28.7 | 68.5 |  |  |  | CNCCOc1cnc(N)c(C#Cc2cc(C(=O)Nc3ccc(CN4CCN(C)CC4)c(C(F)(F)F)c3)ccc2Cl)c1 [Example 28]
12 | 88.0 | 36.4 | 53.4 |  |  |  | C=CC(=O)Nc1cnc(N)c(C#Cc2cc(C(=O)Nc3ccc(CN4CCN(C)CC4)c(C(F)(F)F)c3)ccc2Cl)c1 [Example 39]
13 |  |  |  | 29.7 | 23.9 | 21.1 | CN1CCN(Cc2ccc(NC(=O)c3ccc(Cl)c(C#Cc4ccc(N)nc4)c3)cc2C(F)(F)F)CC1 [HuFGFR151, reference compound]
14 | 69.2 | 44.3 | 73.0 |  |  |  | CN1CCN(Cc2ccc(NC(=O)c3ccc(F)c(C#Cc4cccnc4N)c3)cc2C(F)(F)F)CC1 [Example 2]
15 | 52.0 | 4.6 | 51.1 |  |  |  | COc1ccc(C(=O)Nc2ccc(CN3CCN(C)CC3)c(C(F)(F)F)c2)cc1C#Cc1cccnc1N [Example 4]
16 | 67.8 | 35.1 | 59.3 |  |  |  | COCc1cnc(N)c(C#Cc2cc(C(=O)Nc3ccc(CN4CCN(C)CC4)c(C(F)(F)F)c3)ccc2Cl)c1 [Example 31]
17 | 35.2 | 26.4 |  |  |  | 19.9 | Cc1ncccc1C#Cc1cc(C(=O)Nc2ccc(CN3CCN(C)CC3)c(C(F)(F)F)c2)ccc1Cl [HuFGFR143, reference compound]
18 | 87.0 | 42.1 | 78.3 |  |  |  | [2H]C([2H])([2H])N1CCN(Cc2ccc(NC(=O)c3ccc(Cl)c(C#Cc4cccnc4N)c3)cc2C(F)(F)F)CC1 [Example 53]
19 | 95.1 | 43.1 | 48.5 |  |  |  | CN1CCN(Cc2ccc(NC(=O)c3ccc(Cl)c(C#Cc4nccnc4N)c3)cc2C(F)(F)F)CC1 [Example 46]
20 | 78.0 | 34.3 | 48.7 |  |  |  | CN1CCN(Cc2ccc(NC(=O)c3cccc(C#Cc4nc(CO)cnc4N)c3)cc2C(F)(F)F)CC1 [Example 48]
21 | 59.3 | 24.9 | 75.1 |  |  |  | COc1cnc(N)c(C#Cc2cc(C(=O)Nc3ccc(CN4CCN(C)CC4)c(C(F)(F)F)c3)ccc2Cl)c1 [Example 22]
22 | 79.4 | 24.3 | 77.2 |  |  |  | CN1CCN(Cc2ccc(NC(=O)c3ccc(Cl)c(C#Cc4cc(OCCO)cnc4N)c3)cc2C(F)(F)F)CC1 [Example 26]
23 | 69.4 | 13.2 | 59.3 |  |  |  | CN1CCN(Cc2ccc(NC(=O)c3ccc(Cl)c(C#Cc4cc(C5CC5)cnc4N)c3)cc2C(F)(F)F)CC1 [Example 19]
24 | 77.8 | 35.1 | 49.8 |  |  |  | CNCc1cnc(N)c(C#Cc2cc(C(=O)Nc3ccc(CN4CCN(C)CC4)c(C(F)(F)F)c3)ccc2Cl)c1 [Example 33]
25 | 89.1 | 40.8 | 55.1 |  |  |  | CN1CCN(Cc2ccc(NC(=O)c3cccc(C#Cc4nc(F)cnc4N)c3)cc2C(F)(F)F)CC1 [Example 47]
26 | 77.3 | 35.4 | 53.4 |  |  |  | CN1CCC(Oc2ccc(NC(=O)c3ccc(Cl)c(C#Cc4cccnc4N)c3)cc2C(F)(F)F)CC1 [Example 41]
27 | 70.8 | 23.4 | 71.1 |  |  |  | CN1CCN(Cc2ccc(NC(=O)c3ccc(Cl)c(C#Cc4cc(C(F)(F)F)cnc4N)c3)cc2C(F)(F)F)CC1 [Example 20]
28 | 30.3 | 32.3 | 35.1 |  |  |  | CN1CCN(Cc2ccc(NC(=O)c3ccc(Cl)c(C#Cc4cccnc4F)c3)cc2C(F)(F)F)CC1 [HuFGFR150, reference compound]

Row | Compound | 10 nM inhibition ratio RET (RET) | 10 nM inhibition ratio KDR (KDR) | 10 nM inhibition ratio FGFR1 (FGFR1) | inhibition ratio RET (100 nM) (RET; 100 nM compound) | inhibition ratio KDR (100 nM) (KDR; 100 nM compound) | inhibition ratio FGFR1 (100 nM) (FGFR1)
29 | CN1CCN(Cc2ccc(NC(=O)c3ccc(Cl)c(C#Cc4cccnc4N)c3)cc2C(F)(F)F)CC1.Cl [Example 52] | 89.3 | 40.2 | 75.2 |  |  | 
30 | Nc1ncccc1C#Cc1cc(C(=O)Nc2ccc(CN3CCNCC3)c(C(F)(F)F)c2)ccc1Cl [Example 51] | 79.4 | 38.2 | 67.9 |  |  | 
